Data published in patent US11833256B2, “Selective RARγ ligand-loaded nanoparticles for manipulation of targeted bone growth” (University Of Maryland, Baltimore, priority 2017, dated 2023).

Experiments:
[1] = test system: BMP signaling (phosphorylated Smad1/5, p38, Erk1/2); assay: Immunoblotting of phosphorylated Smad1/5, p38 and Erk1/2 in ATDC5 cells / primary chondrocytes; type: cell-based, mouse; conditions: in the presence of 10 ng/mL rhBMP-2; each dose tested
Protocol: ATDC5 cells were grown until approximately 70% confluence in Dulbecco's modified Eagle's medium/Ham's nutrient mixture F-12 containing 5% fetal bovine serum (FBS). After serum deprivation (0.3% FBS) for 16 hours, cultures were treated with rhBMP-2 and/or retinoids for 60 minutes and then lysed in SDS-PAGE sample buffer. Cell lysates were denatured, separated onto 10% SDS-page gels and transferred to PVDF membranes (Millipore™, USA). Membranes were incubated overnight at 4° C. with antibodies against phospho-Smad1/5 (Cell Signaling Technology™, 9516, 1:1000), phospho-Smad1/5/8 (Cell Signaling Technology™, 9511, 1:1000), phospho-Erk1/2 (Cell Signaling Technology™, 4370, 1:500), or phospho-p38 (Cell Signaling Technology™, 4511, 1:500), followed by incubation with horseradish peroxidase (HRP)-conjugated secondary antibody (Cell Signaling Technology™, 7074, 1:2000). HRP activity was detected using a SuperSignal™ West Dura Extended Duration Substrate (Thermo Scientific™, USA). Membranes were re-blotted with antibodies against GAPDH (Santa Cruz Biotechnology™, sc-32233, 1:1000) for loading normalization.
RARγ was examined for whether it has cell-autonomous roles on BMP signaling in chondrocytes. […] Levels of phosphorylated Smad1/5, p38 and Erk1/2 were analyzed by immunoblotting. […]

[2] = test system: ectopic endochondral bone formation in BMP-Matrigel; assay: Ectopic bone formation model (rhBMP-2-containing Matrigel injected subcutaneously); type: in vivo, mouse; conditions: for biological activities in an ectopic bone formation model: mouse, in vivo; for ectopic bone formation (μCT, BV/TV): oral gavage on day 3, 5 and 7, ectopic masses collected day 12, vs vehicle
Protocol: Ectopic bone formation was induced in mice according to known methods. See Shimono et al., J. Orthop. Res. 28(2):271-277, 2010. Briefly, recombinant human bone morphogenetic protein-2 (rhBMP-2; Gene Script™ Corp., Piscataway, NJ) was added to growth-factor reduced Matrigel™ (BD Bioscience™, Inc., Franklin Lakes, NJ) on ice to a final concentration of 4 µg/mL. Two hundred fifty 250 μL, rhBMP-2-containing Matrigel™ was injected into the left and right subcutaneous abdominal region of 2-month-old CD-1 female mice. Ectopic tissue samples were harvested and subjected to μCT and histological analyses.
After fixation, samples were subjected to μCT analysis using a CT35 scanner (SCANCO USA™ Inc., Southeastern, PA) at 55 kV and […] for bone volume/tissue volume (BV/TV) analysis. Normalized BV/TV means were calculated by ratios of experimental versus control values.
To further evaluate the roles of RARγ and the efficacy of RARγ antagonists on bone formation, the effects of three selective RARγ antagonists were compared with the RARγ agonist, NRX204647, using a mouse ectopic bone model. Recombinant human BMP-2 containing Matrigel™ (BMPMatrigel) was transplanted subcutaneously in the abdomens of CD-1 female mice (ectopic bone formation model). The injected BMP-Matrigel™ mixture rapidly solidified and developed endochondral bone within 10 to 12 days (see FIG. 13B).
The BMP-Matrigel™ injected mice were randomly subdivided into groups and subjected to oral gavage with vehicle corn oil, RARγ agonist or each of the 3 antagonists on day 3, 5 and 7 (see structures in FIG. 13A). The control mouse with vehicle treatment had inductive masses in the Matrigel™-injected sites (see FIG. 13B). Ectopic tissue masses were collected on day 12 and subjected to X-ray and μCT analyses. Micro-CT images of pellets harvested 12 days after implantation were taken. FIG. 13C.
Mice with Matrigel™ Pellets as described above were administered vehicle or 4 mg/kg CD2665 on day 3, 5 and 7 after BMP2-Matrigel™ transplantation by gavage, and then analyzed on Day 7 or Day 12. FIG. 14A. Separately, a second group of mice were administered vehicle or 4 mg/kg CD2665 on day 7, 9 and 11 after BMP2-Matrigel transplantation and analyzed either on day 12 or 17. Pellets were collected at the indicated time, fixed and subjected to μCT analysis (bottom row). Pellets were then sectioned and stained with Alcian blue for quantitation of cartilage (top row).
Samples were first subjected to μCT analysis and were then sectioned and stained with Alcian blue for quantification of cartilage. For each group, 3 sections each (1 mm interval of 4 independent samples) were analyzed. […] For the experiments shown in FIG. 15A, mice were administered vehicle or 4 mg/kg of CD2665 by gavage on day 3, 5 and 7 from BMP-Matrigel™ implantation and samples were collected on day 7 or 12.
To examine these later stages more closely, mice implanted with BMP-Matrigel™ were treated with a RARγ antagonist on day 7, 9 and 11, and the ectopic tissue masses were analyzed on day 12 or 17 (FIG. 15B). […] The findings reaffirm that RARγ antagonists enhance cartilage formation during the middle stages of endochondral ossification and eventually lead to increases in bone formation. For experiments in FIG. 15B, mice were administered vehicle or 4 mg/kg CD2665 by gavage on day 7, 9 and 11 from implantation and analyzed on day 12 or 17. […]
Subcutaneous transplantation of rhBMP-2 containing Matrigel™ (BMP-Matrigel™) pellets in the abdomens of 2-month-old CD-1 female mice was performed. On day 3 and 10, 5 μl of empty NP or 7c-loaded NP (7c-NP: 3.5 μg in 5 μl) were injected around the Matrigel™ pellets. Ectopic bone tissue was corrected on day 15 and subjected to μCT analysis.

[3] = 4 mg/kg gavage day 3, 5, 7, analysed day 12
[4] = 4 mg/kg gavage day 7, 9, 11, analysed day 12

Row | Structure (SMILES) | pSmad1/5/8 levels (immunoblot) [1] | amount of cartilage in ectopic masses (Alcian blue) ([2]; 4 mg/kg gavage day 3, 5, 7, analysed day 7) | area of cartilage in ectopic masses (Alcian blue) [2, 3] | mineralized tissue volume vs control (μCT) [2, 3] | amount of mineralized tissue vs control [2, 4] | cartilaginous tissue in ectopic masses [2, 4] | volume of bone vs control ([2]; 4 mg/kg gavage day 7, 9, 11, analysed day 17) | biological activities in an ectopic bone formation model [2] | ectopic bone formation (μCT, BV/TV) [2]
1 | COCCOCOc1cc2ccc(-c3ccc(C(=O)O)cc3)cc2cc1C12CC3CC(CC(C3)C1)C2 [CD2665] | significantly enhanced | significantly higher amount of cartilage than controls | still more abundant in treated than control samples | about 2 fold | not significant | more cartilaginous tissue | significantly larger volume of bone than controls | proven biological activities | significantly increased the amount of detectable bone
2 | CC1(C)CCC(C)(C)c2cc(C3(c4ccc5cc(C(=O)O)ccc5c4)SCCS3)ccc21 [MM11253] | significantly enhanced | – | – | – | – | – | – | proven biological activities | significantly increased the amount of detectable bone
